The structures appear in SMILES notation. pIC50: −log10 of the molar value.

One test deals with HIS-TGF-βR1 T204D (Homo sapiens (Human), UniProt P36897, T204D). The experiment in a line: HTRF probe displacement assay with HIS-TGF-βR1 T204D.
HIS-TGF-βR1 T204D, sequence (P36897 34-503 T204D): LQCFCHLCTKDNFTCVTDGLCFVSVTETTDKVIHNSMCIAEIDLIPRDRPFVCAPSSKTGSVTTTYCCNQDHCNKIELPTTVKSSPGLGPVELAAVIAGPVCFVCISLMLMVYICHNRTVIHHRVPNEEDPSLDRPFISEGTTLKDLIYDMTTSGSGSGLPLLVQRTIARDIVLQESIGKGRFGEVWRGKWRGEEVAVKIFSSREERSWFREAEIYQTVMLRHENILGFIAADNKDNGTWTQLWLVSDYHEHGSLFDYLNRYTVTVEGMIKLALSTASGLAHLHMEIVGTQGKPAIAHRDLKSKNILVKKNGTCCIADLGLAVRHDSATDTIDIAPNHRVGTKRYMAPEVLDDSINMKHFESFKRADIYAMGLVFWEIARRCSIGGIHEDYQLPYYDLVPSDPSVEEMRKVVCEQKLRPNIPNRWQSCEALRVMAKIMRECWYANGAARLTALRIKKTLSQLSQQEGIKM
Conditions: not given
Background: In TR-FRET formats the signal depends on donor and acceptor labels being close together.
In the case of `N#Cc1cnc2ccc(-c3c(-c4ccc(F)cc4)ncn3CCC(F)(F)F)nn12` [4′, 6-(4-(4-fluorophenyl)-1-(3,3,3-trifluoropropyl)-1H-imidazol-5-yl)imidazo[1,2-b]pyridazine-3-carbonitrile], the pIC50 (usually the IC50 on a negative log10 scale, so that one unit is a factor of ten) is 8.17.

Still in this test, the particulars now being: read-out: TGFbr1 IC50; HTRF probe displacement, 1 nM HIS-TGF-βR1 T204D, 1 hour at room temperature.
For the compound `CC(CCO)n1cnc(-c2ccc(F)cc2)c1-c1ccc2ncc(C(N)=O)n2c1` (stereo not shown) [154′, 6-(4-(4-fluorophenyl)-1-(4-hydroxybutan-2-yl)-1H-imidazol-5-yl)imidazo[1,2-a]pyridine-3-carboxamide], the pIC50 was 8.64.

With `N#Cc1cnc2ccc(-c3c(-c4ccc(F)c(F)c4)ncn3CC(F)F)cn12` [226′, 6-(1-(2,2-difluoroethyl)-4-(3,4-difluorophenyl)-1H-imidazol-5-yl)imidazo[1,2-a]pyridine-3-carbonitrile], the pIC50 was 7.14.

With `NC(=O)c1cnc2ccc(-c3c(-c4ccc(F)cc4)ncn3CCCO)cn12` [165′, 6-(4-(4-fluorophenyl)-1-(3-hydroxypropyl)-1H-imidazol-5-yl)imidazo[1,2-a]pyridine-3-carboxamide], the negative logarithm of the IC50 (pIC50) was 8.31.

With `N#Cc1cnc2ccc(-c3c(-c4ccc(F)c(Cl)c4)ncn3CCC3CC3)nn12` [61′, 6-(4-(3-chloro-4-fluorophenyl)-1-(2-cyclopropylethyl)-1H-imidazol-5-yl)imidazo[1,2-b]pyridazine-3-carbonitrile], the pIC50 is 9.10.

With `CC(C1CC1)n1cnc(-c2ccc(F)cc2)c1-c1ccc2ncc(C(N)=O)n2c1` (stereo not shown) [167′, 6-(1-(1-cyclopropylethyl)-4-(4-fluorophenyl)-1H-imidazol-5-yl)imidazo[1,2-a]pyridine-3-carboxamide], the pIC50 is 9.22.

In the case of `N#Cc1cnc2ccc(-c3c(-c4cccc(N)c4)ncn3CC(F)F)nn12` [240′, 6-(4-(3-aminophenyl)-1-(2,2-difluoroethyl)-1H-imidazol-5-yl)imidazo[1,2-b]pyridazine-3-carbonitrile], the pIC50 was 7.84.

On to `N#Cc1cnc2ccc(-c3c(-c4ccccc4CO)ncn3CC(F)F)nn12` [253′, 6-(1-(2,2-difluoroethyl)-4-(2-(hydroxymethyl)phenyl)-1H-imidazol-5-yl)imidazo[1,2-b]pyridazine-3-carbonitrile], for which the pIC50 is 8.15.

For the compound `Fc1ccc(-c2ncn(CC(F)F)c2-c2ccn3ncnc3c2)cc1` [Example 282′, 7-(1-(2,2-difluoroethyl)-4-(4-fluorophenyl)-1H-imidazol-5-yl)-[1,2,4]triazolo[1,5-a]pyridine], the pIC50 was 7.89.

Turning to `NC(=O)c1cnc2ccc(-c3c(-c4ccc(F)cc4)ncn3C(CO)CO)cn12` [171′, 6-(1-(1,3-dihydroxypropan-2-yl)-4-(4-fluorophenyl)-1H-imidazol-5-yl)imidazo[1,2-a]pyridine-3-carboxamide], the pIC50 is 8.08.

For `N#Cc1cnc2ccc(-c3c(-c4ccc(F)c(Cl)c4)ncn3C3CC(F)C3)nn12` (stereo not shown) [Example 104′, 6-(4-(3-chloro-4-fluorophenyl)-1-(3-fluorocyclobutyl)-1H-imidazol-5-yl)imidazo[1,2-b]pyridazine-3-carbonitrile], the pIC50 was 9.30.

Turning to `CC(C)n1cnc(-c2ccc(F)cc2)c1-c1ccc2ncc(C(N)=O)n2n1` [135′, 6-(4-(4-fluorophenyl)-1-isopropyl-1H-imidazol-5-yl)imidazo[1,2-b]pyridazine-3-carboxamide], the negative logarithm of the IC50 (pIC50) was 9.15.

With `CCC(CO)n1cnc(-c2ccc(F)cc2)c1-c1ccc2ncc(C(N)=O)n2c1` (stereo not shown) [179′, 6-(4-(4-fluorophenyl)-1-(1-hydroxybutan-2-yl)-1H-imidazol-5-yl)imidazo[1,2-a]pyridine-3-carboxamide], the negative logarithm of the IC50 (pIC50) was 8.66.

Regarding `N=C(NO)c1cnc2ccc(-c3c(-c4ccc(F)cc4)ncn3CC(F)F)nn12` [Example 203′, 6-(1-(2,2-difluoroethyl)-4-(4-fluorophenyl)-1H-imidazol-5-yl)-N-hydroxyimidazo[1,2-b]pyridazine-3-carboximidamide], the pIC50 was 8.96.

For the compound `NC(=O)c1cnc2ccc(-c3c(-c4ccc(F)cc4)ncn3C3CCC3)cn12` [172′, 6-(1-cyclobutyl-4-(4-fluorophenyl)-1H-imidazol-5-yl)imidazo[1,2-a]pyridine-3-carboxamide], the pIC50 is 9.30.

Turning to `CCCn1cnc(-c2ccc(F)cc2)c1-c1ccc2ncc(C#N)n2c1` [87′, 6-(4-(4-fluorophenyl)-1-propyl-1H-imidazol-5-yl)imidazo[1,2-a]pyridine-3-carbonitrile], the pIC50 was 7.39.

`CCC(C)n1cnc(-c2ccc(F)cc2)c1-c1ccc2ncc(C#N)n2c1` (stereo not shown) [67′, 6-(1-(sec-butyl)-4-(4-fluorophenyl)-1H-imidazol-5-yl)imidazo[1,2-a]pyridine-3-carbonitrile]: the pIC50 is 7.25.

In the case of `NC(=O)c1cnc2ccc(-c3c(-c4ccc(F)cc4)ncn3CC(F)F)cn12` [230′, 6-(1-(2,2-difluoroethyl)-4-(4-fluorophenyl)-1H-imidazol-5-yl)imidazo[1,2-a]pyridine-3-carboxamide], the pIC50 was 8.77.

In the case of `CCC(C)n1cnc(-c2ccc(F)cc2)c1-c1ccc2ncc(C(N)=O)n2c1` (stereo not shown) [174′, 6-(1-(sec-butyl)-4-(4-fluorophenyl)-1H-imidazol-5-yl)imidazo[1,2-a]pyridine-3-carboxamide], the pIC50 was 9.22.

On to `CC(O)c1cnc2ccc(-c3c(-c4ccc(F)cc4)ncn3CC(F)F)nn12` (stereo not shown) [Example 214′, 1-(6-(1-(2,2-difluoroethyl)-4-(4-fluorophenyl)-1H-imidazol-5-yl)imidazo[1,2-b]pyridazin-3-yl)ethanol], for which the pIC50 is 8.96.

Consider `N#Cc1cnc2ccc(-c3c(-c4cc(Cl)cc(Cl)c4)ncn3CC(F)F)nn12` [238′, 6-(4-(3,5-dichlorophenyl)-1-(2,2-difluoroethyl)-1H-imidazol-5-yl)imidazo[1,2-b]pyridazine-3-carbonitrile], for which the pIC50 was 7.40.

As for `Cn1cnc(-c2ccc(F)cc2)c1-c1ccc2ncc(C#N)n2n1` [19′, 6-(4-(4-fluorophenyl)-1-methyl-1H-imidazol-5-yl)imidazo[1,2-b]pyridazine-3-carbonitrile], the negative-log IC50 (pIC50) was 8.00.

As to `NC(=O)c1cnc2ccc(-c3c(-c4ccc(F)cc4F)ncn3CC(F)F)cn12` [233′, 6-(1-(2,2-difluoroethyl)-4-(2,4-difluorophenyl)-1H-imidazol-5-yl)imidazo[1,2-a]pyridine-3-carboxamide], the pIC50 was 9.00.

As for `CC(C)OCCn1cnc(-c2ccc(F)cc2)c1-c1ccc2ncc(C(N)=O)n2n1` [124′, 6-(4-(4-fluorophenyl)-1-(2-isopropoxyethyl)-1H-imidazol-5-yl)imidazo[1,2-b]pyridazine-3-carboxamide], the pIC50 is 8.60.

Take `CC(O)CCn1cnc(-c2ccc(F)cc2)c1-c1ccc2ncc(C#N)n2c1` (stereo not shown) [69′, 6-(4-(4-fluorophenyl)-1-(3-hydroxybutyl)-1H-imidazol-5-yl)imidazo[1,2-a]pyridine-3-carbonitrile]: the pIC50 was 6.82.

Regarding `N#Cc1cnc2ccc(-c3c(-c4ccccc4)ncn3CC(F)F)nn12` [237′, 6-(1-(2,2-difluoroethyl)-4-phenyl-1H-imidazol-5-yl)imidazo[1,2-b]pyridazine-3-carbonitrile], the pIC50 was 8.54.

On to `CC(CO)n1cnc(-c2ccc(F)cc2)c1-c1ccc2ncc(C(N)=O)n2c1` (stereo not shown) [175′, 6-(4-(4-fluorophenyl)-1-(1-hydroxypropan-2-yl)-1H-imidazol-5-yl)imidazo[1,2-a]pyridine-3-carboxamide], for which the pIC50 was 8.70.

For `N#Cc1cnc2ccc(-c3c(-c4cccc(O)c4)ncn3CC(F)F)nn12` [249′, 6-(1-(2,2-difluoroethyl)-4-(3-hydroxyphenyl)-1H-imidazol-5-yl)imidazo[1,2-b]pyridazine-3-carbonitrile], the pIC50 is 8.66.

Take `COc1cc(-c2ncn(CC(F)F)c2-c2ccc3ncc(C#N)n3n2)ccc1F` [262′, 6-(1-(2,2-difluoroethyl)-4-(4-fluoro-3-methoxyphenyl)-1H-imidazol-5-yl)imidazo[1,2-b]pyridazine-3-carbonitrile]: the pIC50 is 8.28.

As to `NC(=O)c1cnc2ccc(-c3c(-c4ccc(F)c(Cl)c4)ncn3C3CC(F)C3)nn12` (stereo not shown) [141′, 6-(4-(3-chloro-4-fluorophenyl)-1-(3-fluorocyclobutyl)-1H-imidazol-5-yl)imidazo[1,2-b]pyridazine-3-carboxamide], the negative-log IC50 (pIC50) is 9.10.

Consider `NC(=O)c1cnc2ccc(-c3c(-c4ccc(F)c(Cl)c4)ncn3C[C@@H]3CCCO3)nn12` [145′, (S)-6-(4-(3-chloro-4-fluorophenyl)-1-((tetrahydrofuran-2-yl)methyl)-1H-imidazol-5-yl)imidazo[1,2-b]pyridazine-3-carboxamide], for which the pIC50 was 8.66.

On to `NC(=O)c1cnc2ccc(-c3c(-c4ccc(F)cc4)ncn3C3CCCC3)cn12` [159′, 6-(1-cyclopentyl-4-(4-fluorophenyl)-1H-imidazol-5-yl)imidazo[1,2-a]pyridine-3-carboxamide], for which the pIC50 is 9.10.

In the case of `CC(C)n1cnc(-c2ccc(F)c(Cl)c2)c1-c1ccc2ncc(C#N)n2n1` [51′, 6-(4-(3-chloro-4-fluorophenyl)-1-isopropyl-1H-imidazol-5-yl)imidazo[1,2-b]pyridazine-3-carbonitrile], the negative-log IC50 (pIC50) is 9.22.

In the case of `N#Cc1cnc2ccc(-c3c(-c4ccc(F)cc4)ncn3[C@H]3C[C@@H](O)C3)nn12` [Example 2′], the pIC50 is 8.64.

Turning to `CC1(Cn2cnc(-c3ccc(F)c(Cl)c3)c2-c2ccc3ncc(C#N)n3n2)COC1` [45′, 6-(4-(3-chloro-4-fluorophenyl)-1-((3-methyloxetan-3-yl)methyl)-1H-imidazol-5-yl)imidazo[1,2-b]pyridazine-3-carbonitrile], the pIC50 was 8.64.

On to `NC(=O)c1cnc2ccc(-c3c(-c4cc(Cl)ccc4F)ncn3CC(F)F)cn12` [234′, 6-(4-(5-chloro-2-fluorophenyl)-1-(2,2-difluoroethyl)-1H-imidazol-5-yl)imidazo[1,2-a]pyridine-3-carboxamide], for which the pIC50 was 8.96.

Regarding `CNCc1cnc2ccc(-c3c(-c4ccc(F)cc4)ncn3CC(F)F)nn12` [Example 196′], the pIC50 was 7.62.

Source of the values: US9884868B2, “TGF-beta inhibitors” (Rigel Pharmaceuticals, Inc., priority 2015, dated 2018).
